Measurements reported in ChEMBL document CHEMBL1201861, “Genomics of Drug Sensitity in Cancer screening data, Wellcome Trust Sanger Institute”.

Tests used:
Assay in all cases: cells
[1] = test system: D283 Med; format: functional, cell-based, Homo sapiens; details: Homo sapiens, D283 Med
Description: SANGER: Inhibition of human D-283MED cell growth in a cell viability assay.

[2] = test system: EFO-21; format: functional, cell-based, Homo sapiens; details: Homo sapiens, EFO-21;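 note: growth inhibition of EFO-21 cells measured with a viability assay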
Description: SANGER: Inhibition of human EFO-21 cell growth in a cell viability assay.

[3] = test system: ES3; format: functional, cell-based, Homo sapiens; details: Homo sapiens, ES3;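 note: growth inhibition of ES3 cells, read out with a cell viability assay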
Description: SANGER: Inhibition of human ES3 cell growth in a cell viability assay.

[4] = test system: ES4; format: functional, cell-based, Homo sapiens; details: Homo sapiens, ES4;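 note: growth inhibition of human ES4 cells, read out by a cell viability assay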
Description: SANGER: Inhibition of human ES4 cell growth in a cell viability assay.

[5] = test system: EW-1; format: functional, cell-based, Homo sapiens; details: Homo sapiens, EW-1;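 note: growth inhibition of the human EW-1 cell line, read out by a cell viability assay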
Description: SANGER: Inhibition of human EW-1 cell growth in a cell viability assay.

[6] = test system: FTC-133; format: functional, cell-based, Homo sapiens; details: Homo sapiens, FTC-133
[7] = test system: G-401; format: functional, cell-based, Homo sapiens; details: Homo sapiens, G-401
Description: SANGER: Inhibition of human G-401 cell growth in a cell viability assay.

[8] = test system: G-402; format: functional, cell-based, Homo sapiens; details: Homo sapiens, G-402
Description: SANGER: Inhibition of human G-402 cell growth in a cell viability assay.

[9] = test system: HAL-01; format: functional, cell-based; details: Homo sapiens;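 note: growth inhibition of human HAL-01 cells, read out with a cell viability assay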
Description: SANGER: Inhibition of human HAL-01 cell growth in a cell viability assay.

[10] = test system: HH; format: functional, cell-based; details: Homo sapiens
Description: SANGER: Inhibition of human HH cell growth in a cell viability assay.

[11] = test system: HLE; format: functional, cell-based, Homo sapiens; details: Homo sapiens, HLE;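 note: growth inhibition of human HLE cells, read out by a cell viability assay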
Description: SANGER: Inhibition of human HLE cell growth in a cell viability assay.

[12] = test system: HT-3; format: functional, cell-based, Homo sapiens; details: Homo sapiens, HT-3;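 note: growth inhibition measured with a cell viability readout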
Description: SANGER: Inhibition of human HT-3 cell growth in a cell viability assay.

[13] = test system: Hs-578T; format: functional, cell-based, Homo sapiens; details: Homo sapiens, Hs-578T
Description: SANGER: Inhibition of human Hs-578-T cell growth in a cell viability assay.

[14] = test system: IGR-1; format: functional, cell-based, Homo sapiens; details: Homo sapiens, IGR-1;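 note: growth inhibition of human IGR-1 cells, read out with a cell viability assay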
Description: SANGER: Inhibition of human IGR-1 cell growth in a cell viability assay.

[15] = test system: K562; format: functional, cell-based; details: Homo sapiens
Description: SANGER: Inhibition of human K-562 cell growth in a cell viability assay.

[16] = test system: LC-2-ad; format: functional, cell-based, Homo sapiens; details: Homo sapiens, LC-2-ad;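 note: growth inhibition of human LC-2-ad cells, read out with a cell viability assay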
Description: SANGER: Inhibition of human LC-2-ad cell growth in a cell viability assay.

[17] = test system: ME-180; format: functional, cell-based; details: Homo sapiens;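 note: cell viability assay measuring growth inhibition of ME-180 cells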
Description: SANGER: Inhibition of human ME-180 cell growth in a cell viability assay.

[18] = test system: MFE-280; format: functional, cell-based, Homo sapiens; details: Homo sapiens, MFE-280;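 note: growth inhibition of MFE-280 cells, determined with a cell viability readout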
Description: SANGER: Inhibition of human MFE-280 cell growth in a cell viability assay.

[19] = test system: MFH-ino; format: functional, cell-based; details: Homo sapiens;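 note: growth inhibition of human MFH-ino cells, read out by a cell viability assay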
Description: SANGER: Inhibition of human MFH-ino cell growth in a cell viability assay.

[20] = test system: MG-63; format: functional, cell-based, Homo sapiens; details: Homo sapiens, MG-63;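 note: growth inhibition of human MG-63 cells, read out with a cell viability assay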
Description: SANGER: Inhibition of human MG-63 cell growth in a cell viability assay.

[21] = test system: MKN-45; format: functional, cell-based, Homo sapiens; details: Homo sapiens, MKN-45;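 note: growth inhibition of human MKN-45 cells, measured with a cell viability assay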
Description: SANGER: Inhibition of human MKN45 cell growth in a cell viability assay.

[22] = test system: NB10; format: functional, cell-based, Homo sapiens; details: Homo sapiens, NB10;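 note: growth inhibition of NB10 cells, read out by a cell viability assay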
Description: SANGER: Inhibition of human NB10 cell growth in a cell viability assay.

[23] = test system: NB17; format: functional, cell-based; details: Homo sapiens;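 note: growth inhibition of NB17 cells, read out with a cell viability assay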
Description: SANGER: Inhibition of human NB17 cell growth in a cell viability assay.

[24] = test system: NB5; format: functional, cell-based, Homo sapiens; details: Homo sapiens, NB5;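 note: growth inhibition of NB5 cells, read out as cell viability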
Description: SANGER: Inhibition of human NB5 cell growth in a cell viability assay.

[25] = test system: NCI-H2405; format: functional, cell-based, Homo sapiens; details: Homo sapiens, NCI-H2405;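 note: growth inhibition of the human cell line, read out with a cell viability assay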
Description: SANGER: Inhibition of human NCI-H2405 cell growth in a cell viability assay.

[26] = test system: NCI-H441; format: functional, cell-based; details: Homo sapiens;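 note: growth inhibition of NCI-H441 cells, read out with a cell viability assay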
Description: SANGER: Inhibition of human NCI-H441 cell growth in a cell viability assay.

[27] = test system: NCI-H82; format: functional, cell-based; details: Homo sapiens;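 note: growth inhibition of NCI-H82 cells, measured with a cell viability readout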
Description: SANGER: Inhibition of human NCI-H82 cell growth in a cell viability assay.

[28] = test system: NH-12; format: functional, cell-based, Homo sapiens; details: Homo sapiens, NH-12;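 note: growth inhibition of NH-12 cells, read out with a cell viability assay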
Description: SANGER: Inhibition of human NH-12 cell growth in a cell viability assay.

[29] = test system: PANC-03-27; format: functional, cell-based, Homo sapiens; details: Homo sapiens, PANC-03-27
Description: SANGER: Inhibition of human PANC-03-27 cell growth in a cell viability assay.

[30] = test system: QIMR-WIL; format: functional, cell-based; details: Homo sapiens;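 note: growth inhibition of QIMR-WIL cells, read out with a cell viability assay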
Description: SANGER: Inhibition of human QIMR-WIL cell growth in a cell viability assay.

[31] = test system: SBC-5; format: functional, cell-based, Homo sapiens; details: Homo sapiens, SBC-5;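 note: cell viability assay read-out, IC50 is the concentration that inhibits growth of the cells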
Description: SANGER: Inhibition of human SBC-5 cell growth in a cell viability assay.

[32] = test system: SF-126; format: functional, cell-based, Homo sapiens; details: Homo sapiens, SF-126;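 note: growth inhibition of human SF126 cells, read out with a cell viability assay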
Description: SANGER: Inhibition of human SF126 cell growth in a cell viability assay.

[33] = test system: SF-268; format: functional, cell-based, Homo sapiens; details: Homo sapiens, SF-268;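 note: growth inhibition of SF-268 cells determined with a cell viability assay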
Description: SANGER: Inhibition of human SF268 cell growth in a cell viability assay.

[34] = test system: SKG-IIIa; format: functional, cell-based, Homo sapiens; details: Homo sapiens, SKG-IIIa;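 note: cell growth inhibition, read out with a cell viability assay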
Description: SANGER: Inhibition of human SKG-IIIa cell growth in a cell viability assay.

[35] = test system: SN12C; format: functional, cell-based, Homo sapiens; details: Homo sapiens, SN12C;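 note: growth inhibition of human SN12C cells, measured by a cell viability assay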
Description: SANGER: Inhibition of human SN12C cell growth in a cell viability assay.

[36] = test system: SW-620; format: functional, cell-based, Homo sapiens; details: Homo sapiens, SW-620;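 note: growth inhibition of human SW-620 cells, measured by a cell viability assay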
Description: SANGER: Inhibition of human SW620 cell growth in a cell viability assay.

[37] = test system: SW 954; format: functional, cell-based, Homo sapiens; details: Homo sapiens, SW 954;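 note: growth inhibition of SW954 human cancer cells, read out as cell viability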
Description: SANGER: Inhibition of human SW954 cell growth in a cell viability assay.

[38] = test system: SW 962; format: functional, cell-based, Homo sapiens; details: Homo sapiens, SW 962;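 note: growth inhibition of human SW962 cells, read out by a cell viability assay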
Description: SANGER: Inhibition of human SW962 cell growth in a cell viability assay.

[39] = test system: CWR22R; format: functional, cell-based, Homo sapiens; details: Homo sapiens, 22Rv1;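 note: growth inhibition of 22Rv1 cells, read out with a cell viability assay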
Description: SANGER: Inhibition of human 22RV1 cell growth in a cell viability assay.

[40] = test system: 786-0; format: functional, cell-based, Homo sapiens; details: Homo sapiens
Description: SANGER: Inhibition of human 786-0 cell growth in a cell viability assay.

[41] = test system: A388; format: functional, cell-based, Homo sapiens; details: Homo sapiens, A388;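 note: growth inhibition of human A388 cells, read out with a cell viability assay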
Description: SANGER: Inhibition of human A388 cell growth in a cell viability assay.

[42] = test system: A4-Fuk; format: functional, cell-based; details: Homo sapiens;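 note: growth inhibition of A4-Fuk cells, read out by a cell viability assay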
Description: SANGER: Inhibition of human A4-Fuk cell growth in a cell viability assay.

[43] = test system: A498; format: functional, cell-based, Homo sapiens; details: Homo sapiens, A498;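 note: growth inhibition of human A498 cells, read out with a cell viability assay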
Description: SANGER: Inhibition of human A498 cell growth in a cell viability assay.

[44] = test system: BFTC-905; format: functional, cell-based, Homo sapiens; details: Homo sapiens, BFTC-905
Description: SANGER: Inhibition of human BFTC-905 cell growth in a cell viability assay.

[45] = test system: BHT-101; format: functional, cell-based, Homo sapiens; details: Homo sapiens, BHT-101
Description: SANGER: Inhibition of human BHT-101 cell growth in a cell viability assay.

[46] = test system: C2BBe1; format: functional, cell-based, Homo sapiens; details: Homo sapiens, C2BBe1;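 note: growth inhibition of C2BBe1 cells, read out through a viability assay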
Description: SANGER: Inhibition of human C2BBe1 cell growth in a cell viability assay.

[47] = test system: CAL-120; format: functional, cell-based, Homo sapiens; details: Homo sapiens, CAL-120;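 note: cell growth inhibition, read out as cell viability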
Description: SANGER: Inhibition of human CAL-120 cell growth in a cell viability assay.

[48] = test system: TE-6; format: functional, cell-based, Homo sapiens; details: Homo sapiens, TE-6;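 note: growth inhibition of TE-6 cells, read out with a cell viability assay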
Description: SANGER: Inhibition of human TE-6 cell growth in a cell viability assay.

[49] = test system: TGBC1TKB; format: functional, cell-based, Homo sapiens; details: Homo sapiens, TGBC1TKB;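 note: growth inhibition of TGBC1TKB cells, read out by a cell viability assay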
Description: SANGER: Inhibition of human TGBC1TKB cell growth in a cell viability assay.

[50] = test system: TYK-nu; format: functional, cell-based, Homo sapiens; details: Homo sapiens, TYK-nu;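 note: growth inhibition of human TYK-nu cells, read out by a cell viability assay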
Description: SANGER: Inhibition of human TYK-nu cell growth in a cell viability assay.

[51] = test system: VMRC-RCZ; format: functional, cell-based; details: Homo sapiens;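 note: growth inhibition measured with a cell viability assay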
Description: SANGER: Inhibition of human VMRC-RCZ cell growth in a cell viability assay.

[52] = test system: CHP-212; format: functional, cell-based, Homo sapiens; details: Homo sapiens, CHP-212
Description: SANGER: Inhibition of human CHP-212 cell growth in a cell viability assay.

Compound: CC(=O)O[C@@]12CO[C@@H]1C[C@H](O)[C@@]1(C)C(=O)[C@H](O)C3=C(C)[C@@H](OC(=O)[C@H](O)[C@@H](NC(=O)OC(C)(C)C)c4ccccc4)C[C@@](O)([C@@H](OC(=O)c4ccccc4)[C@H]21)C3(C)C [DOCETAXEL]
- IC50 [1]: 6.24 nM
- IC50 [2]: > 10 nM
- IC50 [3]: 2.77 nM
- IC50 [4]: 1.55 nM
- IC50 [5]: 2.98 nM
- IC50 [6]: 0.489 nM
- IC50 [7]: 1.27 nM
- IC50 [8]: 0.706 nM
- IC50 [9]: > 10 nM
- IC50 [10]: > 10 nM
- IC50 [11]: 4.05 nM
- IC50 [12]: 2.82 nM
- IC50 [13]: 2.72 nM
- IC50 [14]: 6.41 nM
- IC50 [15]: > 10 nM
- IC50 [16]: 3.4 nM
- IC50 [17]: 1.69 nM
- IC50 [18]: > 10 nM
- IC50 [19]: > 10 nM
- IC50 [20]: 1.51 nM
- IC50 [21]: 4.53 nM
- IC50 [22]: > 10 nM
- IC50 [23]: 1.89 nM
- IC50 [24]: > 10 nM
- IC50 [25]: > 10 nM
- IC50 [26]: > 10 nM
- IC50 [27]: 8.22 nM
- IC50 [28]: > 10 nM
- IC50 [29]: 1.54 nM
- IC50 [30]: 4.38 nM
- IC50 [31]: 1.87 nM
- IC50 [32]: 3.29 nM
- IC50 [33]: 1.21 nM
- IC50 [34]: 2.86 nM
- IC50 [35]: 5.5 nM
- IC50 [36]: 3.97 nM
- IC50 [37]: 0.823 nM
- IC50 [38]: 2.93 nM
- IC50 [39]: 3.15 nM
- IC50 [40]: 7.86 nM
- IC50 [41]: 2.65 nM
- IC50 [42]: 3.9 nM
- IC50 [43]: 0.278 nM
- IC50 [44]: 0.268 nM
- IC50 [45]: 9.8 nM
- IC50 [46]: 1.82 nM
- IC50 [47]: 4.35 nM
- IC50 [48]: > 10 nM
- IC50 [49]: 9.1 nM
- IC50 [50]: 2.32 nM
- IC50 [51]: 2.52 nM
- IC50 [52]: 0.73 nM

Compound: Nc1ccn([C@@H]2O[C@H](CO)[C@@H](O)[C@@H]2O)c(=O)n1 [CYTARABINE]
- IC50 [1]: 360 nM
- IC50 [2]: 1550 nM
- IC50 [3]: 199 nM
- IC50 [4]: 214 nM
- IC50 [5]: 139 nM
- IC50 [6]: 1390 nM
- IC50 [7]: 758 nM
- IC50 [8]: 650 nM
- IC50 [9]: 328 nM
- IC50 [10]: > 2000 nM
- IC50 [11]: 1590 nM
- IC50 [12]: 1380 nM
- IC50 [13]: 839 nM
- IC50 [14]: 1780 nM
- IC50 [15]: > 2000 nM
- IC50 [16]: 230 nM
- IC50 [17]: > 2000 nM
- IC50 [18]: > 2000 nM
- IC50 [19]: > 2000 nM
- IC50 [20]: > 2000 nM
- IC50 [21]: 1650 nM
- IC50 [22]: 188 nM
- IC50 [23]: > 2000 nM
- IC50 [24]: 452 nM
- IC50 [25]: > 2000 nM
- IC50 [26]: > 2000 nM
- IC50 [27]: > 2000 nM
- IC50 [28]: 1160 nM
- IC50 [29]: 897 nM
- IC50 [30]: > 2000 nM
- IC50 [31]: > 2000 nM
- IC50 [32]: 693 nM
- IC50 [33]: 1360 nM
- IC50 [34]: 915 nM
- IC50 [35]: 623 nM
- IC50 [36]: 349 nM
- IC50 [37]: > 2000 nM
- IC50 [38]: > 2000 nM
- IC50 [39]: > 2000 nM
- IC50 [40]: 669 nM
- IC50 [41]: 740 nM
- IC50 [42]: 1170 nM
- IC50 [43]: > 2000 nM
- IC50 [44]: 108 nM
- IC50 [45]: 41.8 nM
- IC50 [46]: 166 nM
- IC50 [47]: > 2000 nM
- IC50 [48]: > 2000 nM
- IC50 [49]: > 2000 nM
- IC50 [50]: 661 nM
- IC50 [51]: 1350 nM
- IC50 [52]: 33.5 nM

Compound: O=c1cc(-c2cccc3c2Sc2ccccc2S3)oc(N2CCOCC2)c1 [KU-55933]
- IC50 [1]: > 10000 nM
- IC50 [2]: > 10000 nM
- IC50 [3]: > 10000 nM
- IC50 [4]: > 10000 nM
- IC50 [5]: > 10000 nM
- IC50 [6]: > 10000 nM
- IC50 [7]: > 10000 nM
- IC50 [8]: > 10000 nM
- IC50 [9]: > 10000 nM
- IC50 [10]: 8280 nM
- IC50 [11]: > 10000 nM
- IC50 [12]: > 10000 nM
- IC50 [13]: > 10000 nM
- IC50 [14]: > 10000 nM
- IC50 [15]: > 10000 nM
- IC50 [16]: > 10000 nM
- IC50 [17]: > 10000 nM
- IC50 [18]: > 10000 nM
- IC50 [19]: > 10000 nM
- IC50 [20]: > 10000 nM
- IC50 [21]: > 10000 nM
- IC50 [22]: > 10000 nM
- IC50 [23]: > 10000 nM
- IC50 [24]: > 10000 nM
- IC50 [25]: > 10000 nM
- IC50 [26]: > 10000 nM
- IC50 [27]: > 10000 nM
- IC50 [28]: > 10000 nM
- IC50 [29]: > 10000 nM
- IC50 [30]: > 10000 nM
- IC50 [31]: > 10000 nM
- IC50 [32]: > 10000 nM
- IC50 [33]: > 10000 nM
- IC50 [34]: > 10000 nM
- IC50 [35]: > 10000 nM
- IC50 [36]: > 10000 nM
- IC50 [37]: > 10000 nM
- IC50 [38]: > 10000 nM
- IC50 [39]: > 10000 nM
- IC50 [40]: > 10000 nM
- IC50 [41]: > 10000 nM
- IC50 [42]: > 10000 nM
- IC50 [43]: > 10000 nM
- IC50 [44]: > 10000 nM
- IC50 [45]: > 10000 nM
- IC50 [46]: > 10000 nM
- IC50 [47]: > 10000 nM
- IC50 [48]: > 10000 nM
- IC50 [49]: > 10000 nM
- IC50 [50]: > 10000 nM
- IC50 [51]: > 10000 nM
- IC50 [52]: > 10000 nM
